The subject of one data set is Rj: Wistar (Han) rats. The experiment in a line: EEG sleep-wake cycle in conscious freely-moving rats. Type of data set: in vivo, rat. The procedure:
They were supplied by Elevage Janvier, 53940 Le Genest-Saint-Isle, France.
Implanted animals were individually placed in transparent perspex boxes in a soundproof, light-controlled, ventilated cabin and were habituated to the recording environment for at least 10 days. Drug-free baseline EEG was recorded for 23 hours. Then the rats were administered vehicle and the EEG recorded for another 23 hours. The next day, rats were treated with one of the 4 amphetamine forms first at the dose of 3 mg/kg, than at the dose of 1 mg/kg. The following variables were measured: latency to the appearance of stable slow-wave sleep (SWS), latency to the first appearance of rapid-eye-movement sleep (REM), the number of REM sleep phases, and the distribution percentage of wake/SWS/REM (sleep architecture).
Test sessions following treatment were individually compared with corresponding control sessions. As no differences were apparent after vehicle, the 2 control sessions with and without vehicle, were averaged.

In data set [1] the test system is spontaneously hypertensive rat (SHR). The experiment in a line: Behavioural study, multiple Random-Interval/Extinction operant schedule in the SHR model of ADHD. It is filed as in vivo. The following applies: for General activity level (total number of lever presses), overactivity / Impulsiveness (number of responses with short IRTs): d 0.5-1.5 mg/kg, l 1.0-3.0 mg/kg i.p.; for Sustained attention following transformation: transformed data, saline as baseline, FIG. 6. The source says: (§1) Subjects: A total number of 32 male rats, 16 spontaneously hypertensive (SHR) and 16 Wistar/Kyoto (WKY), participated in final part of this study. (Initially, 8 extra rats, 6 SHRs and 2 controls, were trained with a view to select two groups of 16 with the greatest difference in baseline measures. However, there was little difference when comparing all the rats with a selected subgroup—they both separated well.) At the start of testing, the rats were ˜5 wk old and experimentally naive. Young rats were required, as ADHD primarily is a child and adolescent disorder. The SHRs were obtained from Charles River Italy (SHR/Cr1 Ico) and the WKYs from Charles River France (WKY/Nico) as other breeding centers were unable to deliver rats at the time we needed them. At the University of Oslo, the rats were housed individually in 41×25×25 (height) cm transparent cages and had free access to food (BK Standard RM 1 from Beekay Feeds Universal Ltd.).
(§2) The rats had access to water at all times during the habituation period. However, after completing the habituation period, the rats were deprived of water for 21 hr a day. The rats received water as reinforcers during the experimental session and had free access to water for 90 min after the experimental session. The temperature in the housing area was ˜20° C. The light in the housing area was on from 0700 to 1900 hours. The behavioral training took place between 0900 and 1230 hours seven days a week.
(§3) Behavioral apparatus: Sixteen Campden Instruments operant chambers were used in the study. The animal working space in eight of the chambers is 25×25×30 (height) cm and 25×25×20 (height) cm in the other eight chambers. The 2.8-W house light and a fan producing a low masking noise were on during the entire experimental session.
(§4) During training sessions, either one or two retractable levers were used. A 2.8-W cue light was located above each lever. The rats' response consisted of pressing one of the levers with a dead weight of at least 3 g to activate a microswitch. The reinforcers (0.01 ml tap water) were delivered by a liquid dipper located in a small recessed cubicle with a 2.8-W cue light lit when a reinforcer is presented. A 7×5 cm transparent plastic lid separated the cubicle from the rat's working space. The rat could easily open the lid with a light push with the nose or paw. Each chamber was ventilated and placed in a sound-resistant outer housing. A computer and an online system (SPIDER, Paul Fray, Ltd., UK) recorded the behavior and scheduled reinforcers (drops of water).
Before the initiation of the study, the rats were randomized and balanced into two groups. Each group of rats consisted of an equal number of SHRs and WKYs. Each rat was assigned to a specific chamber, which it occupied during all sessions. The rat was returned to its living cage after each session. All animals were run seven days a week.
Response acquisition: The training period started with a single 30-min habituation session. During the habituation session, the lid between the working space and the reinforcement cubicle was kept open. No lever was present and no cue light above any lever was lit. The house light was on. From this time on the rats were deprived of water for 21 hr a day; this is a moderate, but sufficient deprivation for motivating the animal.
The habituation session was followed by two 30-min magazine training sessions. The lid was taped open, no levers were present, and the house light was on, but the cue lights above the levers were not lit. The computer delivered water on the average every 10s independent of the rat's behavior (a variable-time schedule).
In the next two sessions, the rat was trained to open the lid to gain access to the water. The lid was not taped open, no levers were present and the lights above the levers were not activated. The house light was on. Each lid opening was followed by a presentation of a single drop of water. […]

In a further data set the test system is Wistar Kyoto Rat (WKY). The experiment in a line: Behavioural study, multiple Random-Interval/Extinction operant schedule in WKY controls. It is filed as in vivo. The following applies: single isomers; for General activity level: FIG. 3; for Impulsiveness: FIG. 4.
Text: as §1, §2, §3, §4
Before the initiation of the study, the rats were randomized and balanced into two groups. Each group of rats consisted of an equal number of SHRs and WKYs. Each rat was assigned to a specific chamber, which it occupied during all sessions. […]

For a further data set, the system named is Rats. The experiment in a line: Weight gain, food and water intake in rats with 3 hours per day access. It is filed as in vivo, rat. The following applies: for Body weight gain: once a day dosing, measured every day; for Water intake: once a day, one hour before 3 h access to food and water; for Food intake: over the 3 hours of access each day, 10 day period. As for the experimental part: Rats were given access to food and water for 3 hours per day. The acclimation period was 10 days. Thereafter, vehicle or doses of l- or d-amphetamine sulphate were administered to the rats once a day one hour before access to food and water. Body weight was measured every day (FIG. 11) before the drug administration and then food intake (FIG. 12) and water intake were measured over the 3 hours each day when the rats had access to the same.

The test system of data set [2] is noradrenaline (NA) release, frontal cortex. The experiment in a line: Basal release of tritiated noradrenaline from rat brain slices in vitro (Brandel system). Type of data set: cell-based. As for the experimental part: The DA and NA release is measured in separate brain areas, i.e., in striatum for DA release (evaluating tritiated dopamine) and in the frontal cortex for NA release (evaluating tritiated noradrenaline), using a Brandel system. The brain slices are loaded with the tritiated monoamine (dopamine or noradrenaline) and then superfused to produce basal neurotransmitter release. The slices are also subjected to 2 short periods of electrical stimulation to effect stimulated transmitter release.

Setting [3] is: between 4 and 8 h after administration, 3 mg/kg.

Structures are written as SMILES.

Turning to `CC(N)Cc1ccccc1.NC(CC(=O)O)C(=O)O` (racemic) [dl-amphetamine aspartate], in the data set on Rj: Wistar (Han) rats (between 4 and 8 h after administration, 1 mg/kg), the REM sleep result is reported as “reduced”.

In the case of `C[C@H](N)Cc1ccccc1` [d-amphetamine], in data set [1] (FIG. 3), the “General activity level (total number of lever presses), overactivity” value (“General activity level … overactivity” for short) is recorded as “reduced”. For the same molecule, the “General activity level … overactivity” value in data set [1] (FIG. 3, listed as D-amphetamine) is “more than l-amphetamine”. Moreover, the “Impulsiveness (number of responses with short IRTs)” value in data set [1] (FIG. 4) was “reduced”. For the same molecule, the “Impulsiveness (number of responses with short IRTs)” value in data set [1] (FIG. 4, listed as D-amphetamine) was “more than l-amphetamine”. For the same molecule, the “Sustained attention following transformation” value in data set [1] is reported as “disappeared”. The “Delay to onset of REM sleep compared with the other dose” value in the data set on Rj: Wistar (Han) rats (3 mg/kg) is given as “tended to be longer”. In addition, in the data set on Rj: Wistar (Han) rats (3 mg/kg, first 4 h of recording), the “Effects on SWS and wake compared with the l-isomer” value was “significantly greater than the l-isomer”. In addition, in the data set with Rj: Wistar (Han) rats (setting [3]), the SWS result was “reduced” and the Waking entry was “increased”. In addition, in the data set on Rj: Wistar (Han) rats (rat, in vivo), the “Duration of effects on the sleep-wake cycle” value is on record as “longer lasting” and the “Overall potency on the sleep-wake cycle” value is recorded as “more potent than l-amphetamine”. Moreover, in the data set with Wistar Kyoto Rat (WKY), the General activity level entry is recorded as “unaffected” and the Impulsiveness result is “unaffected”. In the data set with Rats, the Body weight gain result is on record as “dose-related reductions”, the Water intake result is “little effect” and the Food intake entry is on record as “decreased food intake over the measured 10 day period”.

For `C[C@@H](N)Cc1ccccc1` [l-amphetamine], in data set [1] (2 mg/kg, T-test with dependent samples, p <0.01), the “Sustained attention, performance versus saline” value is reported as “performed better”. In addition, the “General activity level … overactivity” value in data set [1] (FIG. 3) is “reduced”. For the same molecule, in data set [1] (FIG. 4), the “Impulsiveness (number of responses with short IRTs)” value is reported as “less efficient than d-amphetamine”. For the same molecule, the “Sustained attention (percentage of correct lever choices)” value in data set [1] (low doses, untransformed, FIG. 5) is given as “improved sustained attention more markedly than low doses of d-amphetamine”. Moreover, in data set [1], the “Sustained attention following transformation” value is given as “significant improvement”. Moreover, the “Potency in releasing NA from cortex compared with DA from striatum” value in data set [2] was “considerably more potent at releasing NA from cortex than DA from striatum”. Besides, in the data set with Wistar Kyoto Rat (WKY), the General activity level result is “unaffected” and the Impulsiveness result is on record as “unaffected”. In the data set on Rats, the Body weight gain result is “dose-related reductions”, the Water intake entry is “little effect” and the Food intake result is “decreased food intake over the first 1-2 days only”.

The values above are taken from patent publication US20040220277A1, “Enantiomeric amphetamine compositions” (priority 2003, published 2004).
